Experimental data reported in patent publication US12187755B2, “Minimal saponin analogues, synthesis and use thereof” (MEMORIAL SLOAN-KETTERING CANCER CENTER, priority 2014, dated 2025).
“Also recorded” adds a separate entry of the source.

Columns and labels:
[1] = in vivo fluorescence imaging with fluorescein-labeled saponin and OVA-A647; design: species or system mouse; conditions: 24 h post-injection
Method: To address this problem, in vivo fluorescence imaging experiments with fluorescein-labeled active adjuvant 3 (SQS-0-0-5-12) and Alexa-647-conjugated OVA (OVA-A647) were conducted.
Whole-body imaging was performed at 24 h post-injection with a Maestro Imaging System. At 24 h post-injection, mice were sacrificed and the left and right lymph nodes were dissected and imaged separately.

[2] = in vivo; cited from earlier work
C57BL/6J mice [3] = assay: preclinical mouse vaccination model, three-component vaccine (MUC1-KLH, OVA), antibody titers by ELISA; type: in vivo; conditions: for antibody titers (anti-KLH, anti-MUC1, anti-OVA IgG): three-component vaccine MUC1-KLH + OVA, s.c. days 0, 7, 14, booster day 65, sera day 72
Method: A radioiodine (^131I) was introduced into the QS-21 saponin scaffold to enable in vivo biodistribution studies. The non-radiolabeled aryl iodide 6 (SQS-0-0-5-18) by acylation of amine 2 (SQS-0-0-5-11) was synthesized (FIG. 1B). Because no in vitro model exists to assess adjuvant activity, biological evaluation of aryl iodide 6 was carried out in a preclinical mouse vaccination model involving a multi-antigen formulation comprised of the immunogenic peptide MUC1 (prostate and breast cancer antigen, non-glycosylated tandem repeat) conjugated to the highly immunogenic KLH carrier protein (MUC1-KLH) and OVA, a reliable immunogen that induces both antibody and T-cell responses in mice. Antibody responses against each of the three antigens, co-administered with the adjuvant of interest, were determined by ELISA.
(§1) Groups of five mice (C57BL/6J, female, 6-8 weeks of age) were vaccinated with a three-component vaccine consisting of MUC1-KLH ([…]) and OVA ([…]), or a four-component vaccine that also included GD3-KLH ([…]). Antigens were co-administered with the adjuvant of interest ([…]) or without adjuvant (no-adjuvant control) in phosphate buffered saline (PBS, […]) via subcutaneous injections on days 0, 7, and 14, followed by a booster on day 65. Mouse sera were collected at day 72 and antibody titers against each antigen were determined by ELISA. Statistical significance of each antibody response compared to the no-adjuvant control was assessed using a two-tailed unpaired Student's t-test with CI=95%. As an initial, general assessment of toxicity, mouse weight loss was monitored on days 0, 1, 2, 3, and 7 after the first vaccination. These animal experiments were conducted as described in MSKCC Institutional Animal Care and Use Committee (IACUC) protocol #97-11-051.

[4] = toxicity assessment by mouse weight loss after first vaccination; type: in vivo; conditions: for toxicity assessed by mouse weight loss: three-component vaccine, median percent weight loss
Method: as §1

[5] = in vivo biodistribution of radioiodinated saponins; design: species or system mouse; conditions: with OVA, 24-96 h
Method: The aryl tin saponins (7, 9, 17, S9) were synthesized from the corresponding amine precursors (2, S4, 15, S8) by acylation with N-succinimidyl-4-(trimethylstannyl)benzoate 4 (Et3N, DMF, 21° C., 1-2.5 h). Radiolabeling was achieved by iodination of the aryl tin saponin (20 μg) with [^131I]—NaI and chloramine-T (methanol, 21° C., 1 min), followed by immediate HPLC purification. Solvents were removed by rotary evaporation at 35° C. and the radioiodinated probes were formulated in 0.9% saline for biodistribution studies. Co-elution of the radioiodinated probes with the corresponding cold saponins was used for quality control analysis.
Groups of five mice (naive, C57BL/6J female, 8-10 weeks of age) were injected subcutaneously with the radioiodinated saponin adjuvants of interest (˜[…]), the corresponding non-radiolabeled saponin ([…]), and OVA ([…]) in PBS ([…]). Mice were sacrificed at 24 h, 72 h, and 96 h post-injection. Tissues and organs were harvested and analyzed for distribution of radioactivity normalized to the weight of the organ (% ID/g, percent injected dose per gram). Statistical significance of the difference in recoveries (% ID/g) for the active and attenuated adjuvant was assessed for each tissue or organ using two-tailed unpaired Student's t-test with CI=95%.

mice = assay: mouse vaccination with OVA antigen alone (FIG. 7B); type: in vivo; conditions: OVA (20 μg)
Method: FIG. 7A: Synthesis of negative control saponin 8 (SQS-0-3-7-18): (i) SOCl2, pyridine, CH2Cl2/DMF, 21° C., 2 h, 91%; (ii) 1. H2 (50 psi), Pd/C (Degussa), THF/EtOH (1:1), 21° C., 24 h; 2. TFA/H2O (4:1), 0° C., 3.3 h, RP-HPLC, 50% (2 steps); (iii) 4, Et3N, DMF, 21° C., 3 h, RP-HPLC, 68%; (iv) 5, Et3N, DMF, 21° C., 2.5 h, RP-HPLC, 53%. FIG. 7B: Biological evaluation of aryl iodide saponin 8 with OVA antigen. Mice were vaccinated with OVA (20 μg) according to the general procedure discussed herein. Median titers represented as red horizontal bars. Statistical significance compared to SQS-21 was assessed using two-tailed unpaired Student's t-test with CI=95%: *=0.01≤p≤0.05 (significant).
Groups of five mice (C57BL/6J, female, 6-8 weeks of age) were vaccinated with a three-component vaccine consisting of MUC1-KLH ([…]) and OVA ([…]), or a four-component vaccine that also included GD3-KLH (5 mg). […] Mouse sera were collected at day 72 and antibody titers against each antigen were determined by ELISA. Statistical significance of each antibody response compared to the no-adjuvant control was assessed using a two-tailed unpaired Student's t-test with CI=95%. As an initial, general assessment of toxicity, mouse weight loss was monitored on days 0, 1, 2, 3, and 7 after the first vaccination. […]

C57BL/6J mice [6] = assay: preclinical mouse vaccination model, four-component vaccine (MUC1-KLH, OVA, GD3-KLH), antibody titers by ELISA; type: in vivo; conditions: 20 and 50 μg doses
Method: as §1
These saponin variants were evaluated with a four-component vaccine comprised of MUC1-KLH, OVA, and the poorly immunogenic glycolipid GD3 (melanoma, neuroblastoma, sarcoma antigen) conjugated to KLH (GD3-KLH) (FIGS. 5B-E; see FIG. 16 for full data with both 20 and 50 μg doses).

C57BL/6J mice [7] = assay: antibody subtyping of anti-MUC1 and anti-OVA IgG by class-specific ELISA; type: in vivo, mouse
From the text: Production of other mouse IgG subtypes, including IgG2a and IgG3, was low or negligible, as indicated by class-specific ELISA. Toxicity remained drastically lower for all four variants compared to NQS-21 and SQS-21 (FIG. 5f).

[8] = biodistribution of radioiodinated ovalbumin with and without adjuvant 6; type: in vivo, mouse; conditions: presence and absence of active adjuvant 6
Method: In a complementary experiment, the biodistribution of [^131I]-OVA in the presence and absence of active adjuvant 6 was examined (FIG. 10). […] Thus, the influence of 6 upon OVA antigen biodistribution could not be assessed effectively and an alternative experimental approach was required.
Radiolabeled ovalbumin was synthesized by treating 20 μg of ovalbumin with [^131I]—NaI and Chloramine-T in methanol. The reaction mixture was diluted with 2 mL phosphate buffered saline (PBS) followed by centrifugal filtration at 2800 rpm for 12 min using a 30 kDa molecular weight cutoff filter. This process was repeated twice and the concentrated compound was then formulated in 1 mL 0.9% saline for biodistribution studies.

Q: Which “OVA-A647 at the site of injection when co-injected with the adjuvant” value [1] does the source give for `C[C@H]1O[C@@H](OC2C(O)C(NC(=O)CCCCCN)[C@H](CO)O[C@H]2OC(=O)C23CCC(C)(C)CC2C2=CCC4C5(C)CC[C@H](OC6OC(C(=O)O)[C@@H](O)[C@H](OC7OC[C@@H](O)[C@H](O)[C@@H]7O)[C@@H]6O[C@@H]6OC(CO)C(O)[C@@H](O)[C@@H]6O)[C@](C)(C=O)[C@@H]5CC[C@]4(C)[C@]2(C)C[C@@H]3O)C(O)C(O)C1O[C@@H]1OCC(O)C(O)C1O` (stereo partly shown) [compound 2] here?
A: observed at the site of injection

Q: And the “OVA-A647 localization to the nearest draining lymph nodes when co-injected with the adjuvant” value ([1]; dissected lymph nodes)?
A: increased accumulation of OVA-A647 with 3 but not 2

Q: And the adjuvant activity [2]?
A: inactive

Q: What does the source list for `C[C@H]1O[C@@H](OC2C(O)C(NC(=O)CCCCCNC(=O)c3ccc(I)cc3)[C@H](CO)O[C@H]2OC(=O)C23CCC(C)(C)CC2C2=CCC4C5(C)CC[C@H](OC6OC(C(=O)O)[C@@H](O)[C@H](OC7OC[C@@H](O)[C@H](O)[C@@H]7O)[C@@H]6O[C@@H]6OC(CO)C(O)[C@@H](O)[C@@H]6O)[C@](C)(C=O)[C@@H]5CC[C@]4(C)[C@]2(C)C[C@@H]3O)C(O)C(O)C1O[C@@H]1OCC(O)C(O)C1O` (stereo partly shown) [compound 6]?
A: antibody titers (anti-KLH, anti-MUC1, anti-OVA IgG) (C57BL/6J mice [3]): antibody titers comparable to both NQS-21; toxicity assessed by mouse weight loss [4]: reduced toxicity compared to QS-21; localization and retention at injection site and lymph nodes (conclusion) [5]: localizes to and is retained at the injection site and lymph nodes

Q: For `CC1(C)CCC2(C(=O)NCCNC(=O)c3ccc(I)cc3)C(C1)C1=CCC3C4(C)CC[C@H](OC5OC(C(=O)O)[C@@H](O)[C@H](OC6OC[C@@H](O)[C@H](O)[C@@H]6O)[C@@H]5OC5OC(CO)[C@H](O)[C@H](O)[C@@H]5O)[C@](C)(C=O)[C@@H]4CC[C@]3(C)[C@]1(C)C[C@@H]2O` (stereo partly shown) [compound 8], which “adjuvant activity with OVA antigen” value (mice) is on record?
A: poor adjuvant activity

Q: Which results are given for `C[C@@H]1O[C@@H](O[C@H]2[C@H](OC(=O)[C@]34CCC(C)(C)C[C@H]3C3=CC[C@@H]5[C@@]6(C)CC[C@H](O)[C@@](C)(C=O)[C@@H]6CC[C@@]5(C)[C@]3(C)C[C@H]4O)O[C@H](CO)[C@H](NC(=O)CCCCCNC(=O)c3ccc(I)cc3)[C@@H]2O)[C@H](O)[C@H](O)[C@H]1O[C@@H]1OC[C@@H](O)[C@H](O)[C@H]1O` [compound 16]?
A: KLH and MUC1 antibody responses (C57BL/6J mice [3]; three-component vaccine, exception anti-MUC1 titers at lower dose (20 μg)): comparable to those of parent aryl iodide 6, NQS-21, and SQS-21; toxicity assessed by mouse weight loss [4]: much lower toxicity than NQS-21 and SQS-21

Q: What does the source list for `C[C@H]1O[C@@H](OC2C(O)C(NC(=O)CCCCCNC(=O)c3ccc(I)cc3)[C@H](CO)O[C@H]2OC(=O)[C@]23CCC(C)(C)CC2C2=CCC4C5(C)CC[C@H](O)C(C)(C)[C@@H]5CC[C@]4(C)[C@]2(C)CC3)C(O)C(O)C1O[C@@H]1OCC(O)C(O)C1O` (stereo partly shown) [compound 18]?
A: antibody titers (anti-KLH, anti-MUC1, anti-OVA IgG) (C57BL/6J mice [3]): lower antibody titers against all three antigens compared to the parent quillaic acid derivative 16; toxicity assessed by mouse weight loss [4]: low toxicity

Q: Which “antibody responses (anti-KLH, anti-MUC1, anti-OVA IgG, anti-GD3 IgM and IgG)” value (C57BL/6J mice [6]) does the source give for `C[C@H]1O[C@@H](OC2C(O)C(NC(=O)CCCCCNC(=O)c3ccc(I)cc3)[C@H](CO)O[C@H]2OC(=O)[C@]23CCC(C)(C)CC2C2=CCC4C5(C)CC[C@H](O)[C@](C)(CO)[C@@H]5CC[C@]4(C)[C@]2(C)CC3O)C(O)C(O)C1O[C@@H]1OCC(O)C(O)C1O` (stereo partly shown) [compound 19] here?
A: antibody titers slightly below those of echinocystic acid derivative 20; also recorded: antibody responses similar to the complete, branched trisaccharide-containing saponin 6

Q: And the “IgG subtypes of anti-MUC1 and anti-OVA antibodies” value (C57BL/6J mice [7])?
A: significant bias toward the mouse IgG1 and IgG2b subtype

Q: Which results are given for `C[C@H]1O[C@@H](OC2C(O)C(NC(=O)CCCCCNC(=O)c3ccc(I)cc3)[C@H](CO)O[C@H]2OC(=O)C23CCC(C)(C)CC2C2=CCC4C5(C)CC[C@H](O)C(C)(C)[C@@H]5CC[C@]4(C)[C@]2(C)C[C@@H]3O)C(O)C(O)C1O[C@@H]1OCC(O)C(O)C1O` (stereo partly shown) [compound 20]?
A: antibody responses (anti-KLH, anti-MUC1, anti-OVA IgG, anti-GD3 IgM and IgG) (C57BL/6J mice [6]): highest antibody responses to all four antigens; also recorded: immunostimulatory activity generally rivaling that of SQS-21; toxicity (mouse weight loss) ([4]; four-component vaccine, one week after first injection): dramatically reduced toxicity compared to the natural product; IgG subtypes of anti-MUC1 and anti-OVA antibodies (C57BL/6J mice [7]): significant bias toward the mouse IgG1 and IgG2b subtype

Q: For `C[C@H]1O[C@@H](OC2C(O)C(NC(=O)CCCCCNC(=O)c3ccc(I)cc3)[C@H](CO)O[C@H]2OC(=O)C23CCC(C)(C)CC2C2=CCC4C5(C)CC[C@H](O)[C@](C)(C=O)[C@@H]5CC[C@]4(C)[C@]2(C)CC3)C(O)C(O)C1O[C@@H]1OCC(O)C(O)C1O` (stereo partly shown) [compound 21], which “antibody responses (anti-KLH, anti-MUC1, anti-OVA IgG, anti-GD3 IgM and IgG)” value (C57BL/6J mice [6]) is on record?
A: lower antibody responses in all cases except the anti-GD3 IgG response

Q: For `C[C@@H]1O[C@@H](O[C@H]2[C@H](OC(=O)[C@]34CCC(C)(C)C[C@H]3C3=CC[C@@H]5[C@@]6(C)CC[C@H](O)[C@@](C)(CO)[C@@H]6CC[C@@]5(C)[C@]3(C)CC4)O[C@H](CO)[C@H](NC(=O)CCCCCNC(=O)c3ccc(I)cc3)[C@@H]2O)[C@H](O)[C@H](O)[C@H]1O[C@@H]1OC[C@@H](O)[C@H](O)[C@H]1O` [compound 22], which “antibody responses (anti-KLH, anti-MUC1, anti-OVA IgG, anti-GD3 IgM and IgG)” value (C57BL/6J mice [6]) is on record?
A: lower antibody responses in all cases except the anti-GD3 IgG response

B1: [131I]-OVA: radioiodinated ovalbumin antigen (protein, UniProt P01012 2-386, looked up)
Ovalbumin: GSIGAASMEFCFDVFKELKVHHANENIFYCPIAIMSALAMVYLGAKDSTRTQINKVVRFDKLPGFGDSIEAQCGTSVNVHSSLRDILNQITKPNDVYSFSLASRLYAEERYPILPEYLQCVKELYRGGLEPINFQTAADQARELINSWVESQTNGIIRNVLQPSSVDSQTAMVLVNAIVFKGLWEKAFKDEDTQAMPFRVTEQESKPVQMMYQIGLFRVASMASEKMKILELPFASGTMSMLVLLPDEVSGLEQLESIINFEKLTEWTSSNVMEERKIKVYLPRMKMEEKYNLTSVLMAMGITDVFSSSANLSGISSAESLKISQAVHAAHAEINEAGREVVGSAEAGVDAASVSEEFRADHPFLFCIKHIATNAVLFFGRCVSP
modifications: 131I radiolabel
notes: radioiodinated ovalbumin antigen
Q: With B1 as the molecule, how does the “thyroid uptake of [131I]-OVA” value [8] read?
A: thyroid uptake was also high
